No end group written: not given here.
Columns and labels:
Assay type in all cases: cell-based
[1] = system: DKK-1; assay: DKK-1 western blotting; conditions: human hair follicle dermal papilla cells, DKK-1 increased by DHT, 24 hours
Protocol: (§1) Human hair follicle dermal papilla cells were seeded at a density of 4×10^5 cells/well on 6-well plate, followed by incubation overnight. After changing into serum-free medium, the cells were treated with the peptides, followed by incubation for 24 hours, and then the wells were harvested to prepare cell lysate. Western blotting was performed using DKK-1 antibodies (Santa Cruz Biotechnology, USA) to compare protein expression patterns.

[2] = system: β-catenin; assay: β-Catenin activity test (western blotting, nuclear and cytoplasmic proteins); conditions: human hair follicle dermal papilla cells, 15 and 30 minutes
Protocol: as §1, with “plates,” for “plate,”, “15 and 30 minutes,” for “24 hours,”, “isolate nuclear and cytoplasmic proteins.” for “prepare cell lysate.”, “β-catenin” for “DKK-1 antibodies”, “β-catenin” for “protein”

[3] = system: ERK; assay: p-ERK western blotting; conditions: human hair follicle dermal papilla cells, 15 and 30 minutes
Protocol: as §1, with “15 and 30 minutes,” for “24 hours,”, “PI3K” for “DKK-1”, “Biotechnology, USA) and phospho-ERK antibody (Cell Signaling Technology,” for “Biotechnology,”

[4] = system: TGF-β1; assay: TGF-β1 RT-PCR; conditions: human hair follicle dermal papilla cells, 24 hours
Protocol: (§2) Human hair follicle dermal papilla cells were seeded at a density of 4×10^5 cells/well on 6-well plate, followed by incubation overnight. After changing into serum-free medium, the cells were treated with the peptides, followed by incubation for 24 hours, and then the wells were harvested to isolate RNA. After RNA quantification, cDNA synthesis was conducted using the cDNA synthesis kit (Intron, Korea), followed by PCR using PCR premix (Intron, Korea) and TGF-β1 primers, and then electrophoresis was performed on 5% agarose gel to compare the mRNA expression levels of the growth factors in respective sample treatment conditions.

[5] = system: Human hair follicle dermal papilla cells; assay: DPC proliferation assay (MTT); conditions: serum-free medium, incubation for 3 days, absorbance 550 nm
Protocol: Human hair follicle dermal papilla cells were seeded at a density of 2×10^3 cells/well on 96-well plates, followed by incubation overnight. After changing into serum-free medium, the cells were treated with the peptides, followed by incubation for 3 days, and then the wells were treated with 4 mg/ml MTT solution, followed by reaction for 4 hours. The resulting formazan was solubilized with DNSO, and then the absorbance was measured at 550 nm using a microplate reader.

[6] = system: DKK-1; assay: DKK-1 RT-PCR; conditions: human hair follicle dermal papilla cells, DKK-1 increased by DHT, 24 hours
Protocol: as §2, with “5×10^5” for “4×10^5”, “plates,” for “plate,”, “DKK-1” for “TGF-β1”

[7] = system: keratin-14; assay: Keratin-14 RT-PCR; conditions: human hair follicle dermal papilla cells, 24 hours
Protocol: as §2, with “5×10^5” for “4×10^5”, “plates,” for “plate,”, “Ha3-II and keratin-14” for “TGF-β1”

[8] = system: tyrosinase; assay: Tyrosinase activity assay; conditions: B16F10 cells, 72 hours, L-dopa, absorbance 475 nm
Protocol: Melanoma cell line (B16F10) cells were cultured in 6-well culture plates for 24 hours, and treated with a peptide with difference concentrations, followed by culture for 72 hours. The 6-well culture plates were loaded on ice and washed with cool PBS, and then 300 μl of 0.1 M sodium phosphate buffer (pH 6.8 lysis buffer) containing 1% Triton X-100 was added. The cells were collected in 1.5-mL tubes, and then cell membranes were disrupted by repeating five times rapid-freezing at […] and thawing. After centrifugation at 13,000 rpm for 20 minutes, the supernatant was collected in other 1.5-mL tubes, and the protein of the samples was quantified. The samples were diluted to have the same protein concentration and then dispensed in each three wells in a 96-well culture plate, and then 20 μl of 10 mM L-dopa was added, followed by incubation at 37° C. for 1 hour.

[9] = system: CREB; assay: Melanogenesis-related protein activity assay: CREB phosphorylation (western blotting); conditions: B16F10 cell line, 72 hours
Protocol: Melanocytes (B16F10 cell line) were incubated on 6-well culture plates in an incubator for 24 hours, and were treated with the peptide of the present invention with different concentrations. After 72-hour incubation, the cells were lysed, and the cells were subjected to western blotting using specific antibodies (Cell Signaling Technology, USA) to investigate the phosphorylation level of CREB, which is a signaling substance involved in melanogenesis.

[10] = system: tyrosinase; assay: Melanogenesis-related gene RT-PCR: tyrosinase; conditions: B16F10 cell line, 72 hours
Protocol: (§3) Melanocytes (B16F10 cell line) were incubated on 6-well culture plates in an incubator for 24 hours, and were treated with the peptides of the present invention with different concentrations. After RNA was extracted from the cells incubated for 72 hours, cDNA was prepared. PCR was performed by using respective primers specific to MITF and tyrosinase, which are factors involved in melanogenesis, and the expression changes of the respective genes were observed.

[11] = system: MITF; assay: Melanogenesis-related gene RT-PCR: MITF; conditions: B16F10 cell line, 72 hours
Protocol: as §3

[12] = system: melanocytes (B16F10 cell line); assay: Melanin measurement assay; conditions: 72 hours, absorbance 490 nm
Protocol: After melanocytes (B16F10 cell line) in 6-well plates were cultured in an incubator at 37° C. for 24 hours, the medium of each plate was removed and exchanged with a fresh medium, followed by treatment with the present peptide with different concentrations. After the incubation for 72 hours, the culture medium was removed, and the cells were taken off and then transferred into 1.5-ml tubes, followed by centrifugation at 13,000 rpm for 3 minutes. The supernatant was removed, and cell pellets were collected to observe melanin. Then, 150 μl of 2 M NaOH was added to the cell pellets to lyse intracellular melanin at 60° C. for 30 minutes. Then, 100 μl of the supernatant obtained from the lysis was added into each well of 96-well plates, and the absorbance was measured at 490 nm.

[13] = system: PI3K; assay: PI3K western blotting; conditions: human hair follicle dermal papilla cells, 15 and 30 minutes
Protocol: as §1, with “15 and 30 minutes,” for “24 hours,”, “PI3K” for “DKK-1”, “Biotechnology, USA) and phospho-ERK antibody (Cell Signaling Technology,” for “Biotechnology,”

[14] = system: Bcl-2; assay: Bcl-2 western blotting; conditions: human hair follicle dermal papilla cells, 24 hours
Protocol: as §1, with “Bcl-2 and Bax” for “DKK-1”

[15] = system: Bax; assay: Bax western blotting; conditions: human hair follicle dermal papilla cells, 24 hours
Protocol: as §1, with “Bcl-2 and Bax” for “DKK-1”

[16] = system: KGF; assay: KGF RT-PCR; conditions: human hair follicle dermal papilla cells, 24 hours
Protocol: as §2, with “respective KGF and VEGF” for “TGF-β1”, “in” for “in respective”

[17] = system: tyrosinase; assay: Melanogenesis-related protein western blotting: tyrosinase; conditions: B16F10 cell line, 72 hours
Protocol: (§4) Melanocytes (B16F10 cell line) were incubated on 6-well culture plates for 24 hours, and were treated with the peptides of the present invention with different concentrations. After 72-hour incubation, the cells were lysed, and the cells were subjected to western blotting using specific antibodies (two types, both from Santa Cruz Biotechnology, USA) to investigate the expression of MITF and tyrosinase, which are factors involved in melanogenesis.

[18] = system: MITF; assay: Melanogenesis-related protein western blotting: MITF; conditions: B16F10 cell line, 72 hours
Protocol: as §4

[19] = system: MSX2; assay: MSX2 RT-PCR; conditions: human hair follicle dermal papilla cells, 24 hours
Protocol: as §2, with “MSX2” for “TGF-β1”, “level” for “levels”, “factor” for “factors”, “in” for “in respective”

[20] = system: VEGF; assay: VEGF RT-PCR; conditions: human hair follicle dermal papilla cells, 24 hours
Protocol: as §2, with “respective KGF and VEGF” for “TGF-β1”, “in” for “in respective”

[21] = system: Ha3-II; assay: Ha3-II RT-PCR; conditions: human hair follicle dermal papilla cells, 24 hours
Protocol: as §2, with “5×10^5” for “4×10^5”, “plates,” for “plate,”, “Ha3-II and keratin-14” for “TGF-β1”

[22] = system: TRP1; assay: Melanogenesis-related gene RT-PCR: TRP1; conditions: B16F10 cell line, 72 hours, FIG. 13b

Row | tyrosinase activity [8] | mRNA expression of tyrosinase enzyme [10] | Sequence | protein expression of DKK-1 [1] | activity of β-catenin [2] | phosphorylation level of ERK [3] | expression of TGF-β1 (mRNA) [4] | growth of human hair follicle dermal papilla cells [5] | mRNA expression of DKK-1 [6] | mRNA expression of keratin-14 [7] | mRNA expression of MITF transcription factor [11] | melanogenesis [12] | expression of the anti-apoptotic protein Bcl-2 [14] | expression of the apoptosis-related protein Bax [15] | protein expression of tyrosinase enzyme [17] | protein expression of MITF transcription factor [18] | other results
1 | increased | increased | KWKRSADTL [SEQ ID NO: 2] | decreased | increased | increase | inhibited | stimulated in a dose-dependent manner | decreased | increased | increased | increased | increased | decreased | increases | increases | phosphorylation level of CREB [9]: increased; expression of PI3K [13]: increase; expression of KGF (mRNA) [16]: increased
2 | increased | increased | WKWRSADTL [SEQ ID NO: 1] | decreased | increased | increased | inhibited | stimulated in a dose-dependent manner | decreased | increased | increased | increased | increased | decreased | increased | increased | expression of MSX2 (mRNA) [19]: increased; expression of VEGF (mRNA) [20]: increased; mRNA expression of Ha3-II [21]: increased; mRNA expression of TRP1 [22]: increases

— US10508140B2, “Peptide having hair growth-promoting activity and/or melanin generation-promoting activity, and use thereof” (CAREGEN CO., LTD., priority 2016, dated 2019)
